Test results as given in ChEMBL document CHEMBL2086385, “Synthesis and antimicrobial evaluation of L-phenylalanine-derived C5-substituted rhodanine and chalcone derivatives containing thiobarbituric acid or 2-thioxo-4-thiazolidinone” (2012).
In brackets after ≈: the same amount, converted by molar mass.

Tests used:
Type in all cases: functional
Staphylococcus aureus [1] = assay: Antibacterial activity against Staphylococcus aureus KCTC 209 after 24 hrs by broth microdilution method; conditions: KCTC 209, 24 h
Staphylococcus aureus [2] = assay: Antibacterial activity against quinolone-resistant Staphylococcus aureus CCARM 3519 clinical isolate after 24 hrs by broth microdilution method; conditions: CCARM 3519, 24 h
Staphylococcus aureus [3] = assay: Ratio of norfloxacin MIC to compound MIC for quinolone-resistant Staphylococcus aureus CCARM 3505 clinical isolate
Staphylococcus aureus [4] = assay: Antibacterial activity against Staphylococcus aureus RN4220 after 24 hrs by broth microdilution method; conditions: RN4220, 24 h
Staphylococcus aureus [5] = assay: Antibacterial activity against methicillin-resistant Staphylococcus aureus CCARM 3167 clinical isolate after 24 hrs by broth microdilution method; conditions: CCARM 3167, 24 h
Staphylococcus aureus [6] = assay: Ratio of norfloxacin MIC to compound MIC for methicillin-resistant Staphylococcus aureus CCARM 3167 clinical isolate
Escherichia coli = assay: Antibacterial activity against Escherichia coli CCARM 1356 after 24 hrs by broth microdilution method; conditions: CCARM 1356, 24 h
Staphylococcus aureus [7] = assay: Ratio of norfloxacin MIC to compound MIC for methicillin-resistant Staphylococcus aureus CCARM 3506 clinical isolate
Staphylococcus aureus [8] = assay: Antibacterial activity against Staphylococcus aureus KCTC 503 after 24 hrs by broth microdilution method; conditions: KCTC 503, 24 h
Staphylococcus aureus [9] = assay: Antibacterial activity against quinolone-resistant Staphylococcus aureus CCARM 3505 clinical isolate after 24 hrs by broth microdilution method; conditions: CCARM 3505, 24 h
Staphylococcus aureus [10] = assay: Antibacterial activity against methicillin-resistant Staphylococcus aureus CCARM 3506 clinical isolate after 24 hrs by broth microdilution method; conditions: CCARM 3506, 24 h
Staphylococcus aureus [11] = assay: Ratio of norfloxacin MIC to compound MIC for quinolone-resistant Staphylococcus aureus CCARM 3519 clinical isolate

Row | Compound | MIC (Staphylococcus aureus [1]) [µg/mL] | MIC (Staphylococcus aureus [2]) [µg/mL] | Ratio (Staphylococcus aureus [3]) | MIC (Staphylococcus aureus [4]) [µg/mL] | MIC (Staphylococcus aureus [5]) [µg/mL] | Ratio (Staphylococcus aureus [6]) | MIC (Escherichia coli) [µg/mL] | Ratio (Staphylococcus aureus [7]) | MIC (Staphylococcus aureus [8]) [µg/mL] | MIC (Staphylococcus aureus [9]) [µg/mL] | MIC (Staphylococcus aureus [10]) [µg/mL] | Ratio (Staphylococcus aureus [11])
1 | O=C(/C=C/c1ccc(/C=C2\SC(=S)N([C@@H](Cc3ccccc3)C(=O)O)C2=O)cc1)c1ccc(F)cc1 | 16 (≈ 30.9 µM) | 8 (≈ 15.5 µM) | 2 | 4 (≈ 7.73 µM) | 4 (≈ 7.73 µM) | 2 | > 64 | 2 | 16 (≈ 30.9 µM) | 8 (≈ 15.5 µM) | 4 (≈ 7.73 µM) | 2
2 | COc1cccc(C(=O)/C=C/c2ccc(/C=C3\SC(=S)N([C@@H](Cc4ccccc4)C(=O)O)C3=O)cc2)c1 | 16 (≈ 30.2 µM) | 8 (≈ 15.1 µM) | 2 | 4 (≈ 7.55 µM) | 8 (≈ 15.1 µM) | 2 | > 64 | 2 | 16 (≈ 30.2 µM) | 8 (≈ 15.1 µM) | 8 (≈ 15.1 µM) | 2
3 | O=C(O)[C@H](Cc1ccccc1)N1C(=O)/C(=C\c2ccc(OCc3cccc(Cl)c3)cc2)SC1=S | 8 (≈ 15.7 µM) | 4 (≈ 7.84 µM) | 2 | 2 (≈ 3.92 µM) | 4 (≈ 7.84 µM) | 2 | > 64 | 2 | 8 (≈ 15.7 µM) | 4 (≈ 7.84 µM) | 4 (≈ 7.84 µM) | 2
4 | CC(=O)Nc1ccc(C(=O)/C=C/c2ccc(/C=C3\SC(=S)N([C@@H](Cc4ccccc4)C(=O)O)C3=O)cc2)cc1 | 16 (≈ 28.7 µM) | 4 (≈ 7.19 µM) | 2 | 4 (≈ 7.19 µM) | 4 (≈ 7.19 µM) | 2 | > 64 | 2 | 16 (≈ 28.7 µM) | 4 (≈ 7.19 µM) | 2 (≈ 3.59 µM) | 2
5 | O=C(/C=C/c1ccc(/C=C2\SC(=S)N([C@@H](Cc3ccccc3)C(=O)O)C2=O)cc1)c1cccc(Br)c1 | 16 (≈ 27.7 µM) | 16 (≈ 27.7 µM) | 2 | 8 (≈ 13.8 µM) | 8 (≈ 13.8 µM) | 2 | > 64 | 2 | 16 (≈ 27.7 µM) | 8 (≈ 13.8 µM) | 8 (≈ 13.8 µM) | 2
6 | O=C(/C=C/c1ccc(/C=C2\SC(=S)N([C@@H](Cc3ccccc3)C(=O)O)C2=O)cc1)c1ccccc1Br | 16 (≈ 27.7 µM) | 4 (≈ 6.91 µM) | 2 | 2 (≈ 3.46 µM) | 2 (≈ 3.46 µM) | 2 | > 64 | 2 | 16 (≈ 27.7 µM) | 4 (≈ 6.91 µM) | 4 (≈ 6.91 µM) | 2
7 | O=C(O)[C@H](Cc1ccccc1)N1C(=O)/C(=C\c2ccc(OCc3ccc(Cl)cc3)cc2)SC1=S | 8 (≈ 15.7 µM) | 4 (≈ 7.84 µM) | 2 | 2 (≈ 3.92 µM) | 4 (≈ 7.84 µM) | 2 | > 64 | 2 | 8 (≈ 15.7 µM) | 4 (≈ 7.84 µM) | 4 (≈ 7.84 µM) | 2
8 | O=C(O)[C@H](Cc1ccccc1)N1C(=O)/C(=C\c2ccc(OCc3ccccc3)cc2)SC1=S | 8 (≈ 16.8 µM) | 8 (≈ 16.8 µM) | 2 | 2 (≈ 4.21 µM) | 4 (≈ 8.41 µM) | 2 | > 64 | 2 | 8 (≈ 16.8 µM) | 4 (≈ 8.41 µM) | 8 (≈ 16.8 µM) | 2
9 | O=C(O)[C@H](Cc1ccccc1)N1C(=O)/C(=C\c2ccc(OCc3ccccc3Cl)cc2)SC1=S | 8 (≈ 15.7 µM) | 4 (≈ 7.84 µM) | 2 | 4 (≈ 7.84 µM) | 4 (≈ 7.84 µM) | 2 | > 64 | 2 | 8 (≈ 15.7 µM) | 4 (≈ 7.84 µM) | 4 (≈ 7.84 µM) | 2
10 | Cc1ccc(C(=O)/C=C/c2ccc(/C=C3\SC(=S)N([C@@H](Cc4ccccc4)C(=O)O)C3=O)cc2)c(C)c1 | 16 (≈ 30.3 µM) | 8 (≈ 15.2 µM) | 2 | 4 (≈ 7.58 µM) | 4 (≈ 7.58 µM) | 2 | > 64 | 2 | 16 (≈ 30.3 µM) | 8 (≈ 15.2 µM) | 4 (≈ 7.58 µM) | 2
11 | O=C(O)[C@H](Cc1ccccc1)N1C(=O)/C(=C\c2ccc(OCc3cccc(Br)c3)cc2)SC1=S | 4 (≈ 7.21 µM) | 8 (≈ 14.4 µM) | 2 | 2 (≈ 3.61 µM) | 4 (≈ 7.21 µM) | 2 | > 64 | 2 | 4 (≈ 7.21 µM) | 4 (≈ 7.21 µM) | 4 (≈ 7.21 µM) | 2
12 | O=Cc1ccc(OCc2ccc(Cl)cc2Cl)cc1 | > 64 | > 64 | – | > 64 | > 64 | – | > 64 | – | > 64 | > 64 | > 64 | –
